From patent US6433007B1, “Methods for the prevention and treatment of post-surgical complications” (Alcon Manufacturing, Ltd., priority 1998, dated 2002)

System: vitrectomy-induced PSC formation
Test: Post-vitrectomy posterior subcapsular cataract (PSC) formation in Dutch Belted rabbits, surgical irrigating solution
Assay type: in vivo, Dutch Belted rabbit
Conditions: for Incidence of Lens Line Suture Distortion: irrigating solution w/1.0 μM Compound X, rabbit, affected lenses/total lenses
Procedure: The following example illustrates the reduction in frequency of post-vitrectomy cataract formation, employing a surgical irrigating solution containing a compound of formula (I).
Age-matched, Dutch Belted rabbits were used in this study. At 2.5 months of age, unilateral, partial vitrectomy (vitreous replaced by irrigating solution) was performed. Briefly, rabbits (1.5-2.0 kg) were prepared for surgery by subcutaneous administration of atropine to maintain heart rate and limit lung and oropharynx fluid accumulation. Animals were then anesthetized by intramuscular administration of ketamine (45 mg/kg) and xylazine (6 mg/kg). Anesthesia was maintained by re-administration of half-doses of anesthetic every 35-45 minutes as needed. For pupil dilatation, phenylephrine HCL and cyclopentolate HCL were administered topically to the surgical eye (OD). The nonsurgical eye (OS) received Duratears and was then taped shut to prevent loss of moisture. Immediately prior to surgery, proparacaine was administered topically to the OD eye and a speculum inserted. […] Two sutures were placed in a figure eight (4 and 8 o'clock position), about 4.5 mm from the limbus, to accommodate the outer port suction cutter and endoilluminator, respectively. An inner port infusion cannula was sutured through the pars plana (6 o'clock position) about 4 mm from the limbus. Two additional punctures were made with a V-lance stiletto knife (20 gauge) for the instrument entry through the outer ports. Two sutures were then placed (3 and 9 o'clock position) in the sclera, approximately 1 mm from the limbus, to facilitate manipulation of the eye and to secure the metal contact lens holder. Viscoat® (125 μL) was then applied to the cornea followed by the placement of a wide angle lens onto the cornea. The vitreous was then removed using the SERIES TEN THOUSAND® OCUTOME® posterior-segment surgical system for 10 minutes by a combination of cutting (500 cuts/minute) and suction (90 mm Hg), while continually supplying BSS® or BSS Plus® irrigating solution, or an irrigating solution containing Compound X (1.0 μM) (at room temperature), at a rate of approximately 3.5 mL/minute and an ocular fluid pressure of 35 mm Hg. Upon completion of the surgery, instruments were withdrawn, infusion pressure reduced to 22 mm Hg, sclerotomies closed, and the conjunctiva reapproximated at the limbus with sutures. A typical surgical procedure required approximately 40-50 minutes, utilizing approximately 100 mL of irrigation solution. The amount of vitreous replaced was approximately 1.5 mL. At various times following vitrectomy, lenses were excised and immediately examined by low resolution light microscopy. Photographs were taken with a digital camera for a later assessment of line suture defects.
The results of this study document the early development of PSC in the Dutch Belted rabbit following vitrectomy, as quantified by scoring for the presence of distorted suture branches and sub-branches. […] Comparison of the effect of vitrectomy with standard irrigation and the Compound X-supplemented irrigation 3 month post-surgery indicated a high incidence of an acute distortion of normally straight line sutures for animals of the standard irrigation treatment groups (Table 1) but not the Compound X treated animals. […] This abnormal condition was further aggravated at […] post-vitrectomy, as recognized by the extension of existing sub-branches and the development of additional small sub-branches. […] This condition was essentially maintained throughout twelve months post-vitrectomy.
In contrast, 86% (or 6 out of 7 lenses) of the lenses from the Compound X treatment group were unaffected by vitrectomy with an average suture defect score of +1.7 at this same time point. The lens scores of animals treated with the Compound X supplemented therapeutic irrigation solution were essentially identical to those of naive controls (scoreavg=+1.63). […]

## COc1ccc2cc([C@H](C)C(=O)OCC[C@@]3(C)CCc4c(C)c(O)c(C)c(C)c4O3)ccc2c1 [Compound X, (S)-6-methoxy-[…]-methyl-naphthaleneacetic acid, (R)-2-(3,4-dihydro-6-hydroxy-2,5,7,8-tetramethyl-2H-1-benzopyran-2-yl)ethyl ester]
3-12 months post-surgery, compared to naive controls, 1.0 μM in irrigating solution during vitrectomy
  rate of lens growth: essentially identical to that of naive controls
3 month post-Vitrectomy
  Incidence of Lens Line Suture Distortion: 0/8
6 month post-Vitrectomy
  Incidence of Lens Line Suture Distortion: 1/7
12 month post-Vitrectomy
  Incidence of Lens Line Suture Distortion: 1/7
12 months post-vitrectomy, 6 out of 7 lenses, 1.0 μM in irrigating solution
  lenses unaffected by vitrectomy: 86%
12 months post-vitrectomy, scale 0 (straight line suture) to +6 (very crooked suture pattern with many sub-branches or mature cataract), naive controls +1.63
  average suture defect score: +1.7
Six months post-surgery, essentially maintained throughout twelve months post-vitrectomy, low resolution light microscopy
  lens suture appearance (distortion, sub-branches): only slightly distorted suture branches which, on average, were devoid of sub-branches
